What was measured:
ciliary motility = conditions: cited from earlier work
[1] = aqueous solution at physiologic pH; cited from earlier work
[2] = Treatment of chemotherapy-induced lung damage using nebulized heparin and N-acetylcysteine; format: in vivo, human
Protocol: This example describes treatment of chemotherapy-induced lung damage using nebulized heparin and N-acetylcysteine. A patient with unresectable lung cancer, such as locally advanced or metastatic stage III/oligometastatic IV non-small cell lung carcinoma, who is undergoing chemotherapy therapy with bleomycin, carmustine, lomustine, busulfan, daunorubicin, doxorubicin, or idarubicin is administered nebulized enoxaparin via inhalation. The enoxaparin is purified to remove elemental impurities, as described in EXAMPLE 1, and formulated in water at a concentration of 100 mg/mL for a nebulized composition as described in EXAMPLE 2. A dose of either 0.5 mg enoxaparin per kg patient weight (mg/kg), 1 mg/kg, or 2 mg/kg of the aqueous enoxaparin formulation is nebulized and administered to the subject via inhalation every 12 hours for 14 days, followed by 14 days of no enoxaparin treatment. N-acetylcysteine is administered by inhalation via nebulization at 600 mg per dose 30 minutes after each dose of enoxaparin. The 28-day treatment cycle is repeated for up to 6 cycles in the absence of disease progression or unacceptable toxicity. The patient continues to receive best supportive care for the lung cancer (e.g., chemotherapy therapy) while undergoing enoxaparin treatment.
(§1) Additionally, the enoxaparin therapy may reduce the recurrence of the lung cancer by slowing cancer progression through inhibition of mutagenic proliferation, adhesion, angiogenesis, migration, and invasion of cancer cells.

[3] = Treatment of radiation-induced lung damage using nebulized enoxaparin and N-acetylcysteine; format: in vivo, human
Protocol: This example describes treatment of radiation-induced lung damage using nebulized enoxaparin and N-acetylcysteine. A patient with unresectable lung cancer, such as locally advanced or metastatic stage III/oligometastatic IV non-small cell lung carcinoma, who has received radiation therapy is administered nebulized enoxaparin via inhalation. The enoxaparin is purified to remove elemental impurities, as described in EXAMPLE 1, and formulated in water at a concentration of 100 mg/mL for a nebulized composition as described in EXAMPLE 2. A dose of either 0.5 mg enoxaparin per kg patient weight (mg/kg), 1 mg/kg, or 2 mg/kg of the aqueous enoxaparin formulation is nebulized and administered to the subject via inhalation every 12 hours for 14 days, followed by 14 days of no enoxaparin treatment. N-acetylcysteine is administered by inhalation via nebulization at 600 mg per dose 30 minutes after each dose of enoxaparin. The 28-day treatment cycle begins 4-6 weeks after completion of radiation therapy, and the treatment cycle is repeated for up to 6 cycles in the absence of disease progression or unacceptable toxicity. The patient continues to receive best supportive care for the lung cancer (e.g., chemotherapy therapy) while undergoing enoxaparin treatment.
as §1

[4] = same regimen, during chemotherapy
[5] = same regimen, after radiation therapy

## 2-alkyl-4-hydroxyquinolines [pyo compound]
Ciliary motility; ciliostatic factors from Pseudomonas aeruginosa
  concentration producing ciliostasis / inhibiting ciliary motility: 50 µg/mL

## CCN(CC)/[N+]([O-])=N/O.CCNCC [diethylamine/NO]
[1]
  time scale of NO release: < 3 min

## NCCN(CCN)/[N+]([O-])=N/O [diethylenetriamine/NO]
[1]
  time scale of NO release: approximately 20 hours

## enoxaparin
[2]; patient with unresectable lung cancer undergoing chemotherapy, 0.5, 1 or 2 mg/kg inhaled every 12 hours for 14 days, N-acetylcysteine 600 mg after each dose
  development of chemotherapy-induced pneumonitis: treats, prevents, or slows the development
[2]; [4]
  airway inflammation: decreases airway inflammation
  coagulation activation and pulmonary venous thromboembolism: prevents coagulation activation and pulmonary venous thromboembolism
  release of inflammatory cytokines, such as IL-6: inhibits release
[3]; patient with unresectable lung cancer after radiation therapy, 0.5, 1 or 2 mg/kg inhaled every 12 hours for 14 days, N-acetylcysteine 600 mg after each dose
  development of radiation-induced pneumonitis: treats, prevents, or slows the development
[3]; [5]
  airway inflammation: decreases airway inflammation
  coagulation activation and pulmonary venous thromboembolism: prevents coagulation activation and pulmonary venous thromboembolism
  release of inflammatory cytokines, such as IL-6: inhibits release

## rhamnolipid
Ciliary motility; limited exposure of tracheal explants
  effect on cilia: resulted in ciliostasis

Source: patent publication US20260034166A1, “HEPARIN COMPOSITIONS FOR TREATMENT OF LUNG DAMAGE AND METHODS OF USE THEREOF” (Atossa Therapeutics, Inc., priority 2022, published 2026)
